One may read the GI50 as the concentration that inhibits growth by half. The term TGI denotes the concentration giving total growth inhibition.

The structures appear in SMILES notation.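 Interpolation was linear, between the two tested concentrations surrounding the appropriate level; five concentrations were tested over 48 hours in 96-well plates. At the GI50, growth is halved. At the TGI there is no net growth.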

For 8 compounds, GI50 and TGI results are on record in PubChem BioAssay (NCI).

Among the test systems are RPMI-8226 leukemia; U251 CNS; NCI-H460 lung; SF-268 CNS; K-562 leukemia; MOLT-4 leukemia; OVCAR-5 ovarian; OVCAR-4 ovarian; SF-539 CNS; UO-31 renal.
Holding throughout (assay): DTP human tumour cell line panel, 48 h

For `Nc1nc(Cl)nc2c1ncn2C1OC(CO)C(O)C1F` (centres undefined), the GI50 with RPMI-8226 leukemia is 29.8 µM; with U251 CNS, 0.213 µM; in the test on NCI-H460 lung, 0.462 µM; with SF-268 CNS, 0.223 µM; in the test with K-562 leukemia it was 0.426 µM; with OVCAR-5 ovarian, 5.68 µM. Besides, the GI50 with OVCAR-4 ovarian is more than 82.2 µM; in the test with SF-539 CNS, 2.07 µM; in the test on UO-31 renal, 0.228 µM. For the same compound, the TGI in the test with RPMI-8226 leukemia was more than 100 µM; with U251 CNS, more than 100 µM; in the test with NCI-H460 lung it was more than 100 µM; in the test with SF-268 CNS it was 21.3 µM; in the test on K-562 leukemia it was more than 100 µM; with MOLT-4 leukemia, more than 100 µM. Also, the TGI in the test on OVCAR-5 ovarian is more than 100 µM; in the test on OVCAR-4 ovarian it was more than 100 µM; in the test on SF-539 CNS, 7.48 µM; in the test with UO-31 renal, more than 26 µM.
On to `Cc1cc(=O)[nH]c(N/N=C/c2ccccc2O)n1`, for which the GI50 was 5.61 µM with RPMI-8226 leukemia; 6.01 µM with U251 CNS; 4.72 µM in the test with NCI-H460 lung; 7.75 µM in the test on SF-268 CNS; 5.82 µM in the test on K-562 leukemia; 4.95 µM in the test with MOLT-4 leukemia. Besides, the GI50 was 7.42 µM in the test on OVCAR-5 ovarian, 2.25 µM with OVCAR-4 ovarian, 7.06 µM in the test on SF-539 CNS and 5.3 µM with UO-31 renal. Moreover, the concentration for total growth inhibition (TGI) in the test with RPMI-8226 leukemia, in the test on U251 CNS, in the test with NCI-H460 lung, with SF-268 CNS, in the test on K-562 leukemia and with MOLT-4 leukemia was more than 100 µM each time. The total growth inhibition concentration (TGI) in the test with OVCAR-5 ovarian, with OVCAR-4 ovarian, in the test with SF-539 CNS and with UO-31 renal was more than 100 µM in each case.
For the compound `O=c1cc(-c2ccccc2)[nH]c2c1CCCC2`, the GI50 in the test on RPMI-8226 leukemia was 4.67 µM; with U251 CNS it was 4.54 µM; in the test with NCI-H460 lung it was 3.01 µM; in the test on SF-268 CNS it was 7.72 µM; with K-562 leukemia it was 0.85 µM; in the test on MOLT-4 leukemia, 6.16 µM. Besides, the GI50 in the test with OVCAR-5 ovarian is 14.8 µM; in the test on OVCAR-4 ovarian, 9.08 µM; in the test on SF-539 CNS, 2.92 µM; in the test with UO-31 renal, 5.49 µM. Besides, the TGI with RPMI-8226 leukemia, with U251 CNS, in the test on NCI-H460 lung, in the test on SF-268 CNS, in the test with K-562 leukemia and in the test on MOLT-4 leukemia was more than 100 µM in each case. Besides, the TGI in the test on OVCAR-5 ovarian, in the test with OVCAR-4 ovarian, in the test on SF-539 CNS and in the test on UO-31 renal was more than 100 µM each time.
For the compound `Fc1ccc2c(c1)C1=C(CCC2)C(c2ccc(Cl)cc2)NC(=S)N1` (centres undefined), the GI50 in the test on RPMI-8226 leukemia is 13.1 µM; with U251 CNS, 54.7 µM; with NCI-H460 lung it was 32.7 µM; in the test on SF-268 CNS it was 83.8 µM; in the test on K-562 leukemia, 32.4 µM; in the test on MOLT-4 leukemia, 24.5 µM. The GI50 was more than 100 µM with OVCAR-5 ovarian, 44.8 µM with OVCAR-4 ovarian, 37.6 µM in the test with SF-539 CNS and 16.9 µM in the test on UO-31 renal. Besides, the TGI in the test with RPMI-8226 leukemia is 53.8 µM; in the test on U251 CNS, more than 100 µM; in the test with NCI-H460 lung, more than 100 µM; in the test with SF-268 CNS, more than 100 µM; in the test on K-562 leukemia, more than 100 µM; with MOLT-4 leukemia it was more than 100 µM. Besides, the concentration for total growth inhibition (TGI) with OVCAR-5 ovarian, with OVCAR-4 ovarian, with SF-539 CNS and in the test on UO-31 renal was more than 100 µM throughout.
For the compound `N#CC1=C(N)NC(N2CCOCC2)=NC12Nc1ccccc1O2` (centres undefined), the GI50 in the test with RPMI-8226 leukemia was 15.4 µM; in the test on U251 CNS it was 45.8 µM; with NCI-H460 lung, 46.1 µM; in the test with SF-268 CNS, 33.8 µM; with K-562 leukemia, 39.2 µM; in the test with MOLT-4 leukemia, 43 µM. Moreover, the GI50 is more than 100 µM in the test on OVCAR-5 ovarian, more than 100 µM in the test with OVCAR-4 ovarian, 78.7 µM in the test with SF-539 CNS and 31.9 µM in the test with UO-31 renal. Further, the TGI is 61.3 µM with RPMI-8226 leukemia; more than 100 µM in the test with U251 CNS; more than 100 µM with NCI-H460 lung; more than 100 µM in the test with SF-268 CNS; more than 100 µM in the test on K-562 leukemia; more than 100 µM in the test on MOLT-4 leukemia. Further, the TGI in the test on OVCAR-5 ovarian, in the test with OVCAR-4 ovarian, in the test on SF-539 CNS and in the test with UO-31 renal was more than 100 µM throughout.
In the case of `COc1cc(C2c3cc4c(cc3OC(O)C2C)OCO4)cc(OC)c1OC` (centres undefined), the concentration for total growth inhibition (TGI) was 2.07 µM in the test with RPMI-8226 leukemia; more than 40.1 µM in the test with U251 CNS; more than 51.3 µM in the test on NCI-H460 lung; more than 58.9 µM in the test with SF-268 CNS; 41.1 µM with K-562 leukemia; more than 31.9 µM with MOLT-4 leukemia. Besides, the TGI was more than 100 µM in the test with OVCAR-5 ovarian, more than 79.4 µM in the test with OVCAR-4 ovarian, 0.92 µM in the test with SF-539 CNS and 40.7 µM with UO-31 renal.
For the compound `O=C1NC(=O)C(c2cccc(Cl)c2)=C1Nc1ccc(Cl)c(C(=O)O)c1`, the GI50 with RPMI-8226 leukemia, with U251 CNS, in the test with NCI-H460 lung, in the test on SF-268 CNS, in the test on K-562 leukemia and in the test on MOLT-4 leukemia was more than 25 µM each time. In addition, the GI50 with OVCAR-5 ovarian, in the test on OVCAR-4 ovarian, with SF-539 CNS and with UO-31 renal was more than 25 µM throughout. The total growth inhibition concentration (TGI) in the test with RPMI-8226 leukemia, in the test with U251 CNS, with NCI-H460 lung, in the test with SF-268 CNS, in the test with K-562 leukemia and in the test on MOLT-4 leukemia was more than 25 µM in each case. The TGI in the test with OVCAR-5 ovarian, in the test with OVCAR-4 ovarian, in the test on SF-539 CNS and in the test on UO-31 renal was more than 25 µM each time.
As to `OCCCCC#Cc1ccccc1C#Cc1cccnc1`, the GI50 in the test on RPMI-8226 leukemia was 35.5 µM; in the test on U251 CNS, 20.3 µM; in the test with NCI-H460 lung, 31.6 µM; in the test with SF-268 CNS, 40.3 µM; in the test with K-562 leukemia, 23.9 µM; in the test with MOLT-4 leukemia, 27.9 µM. In addition, the GI50 is 27.5 µM in the test with OVCAR-5 ovarian, 26.5 µM with OVCAR-4 ovarian, 43 µM in the test with SF-539 CNS and 25.2 µM with UO-31 renal. For the same compound, the TGI in the test with RPMI-8226 leukemia is more than 100 µM; with U251 CNS, 78.6 µM; in the test with NCI-H460 lung, more than 100 µM; in the test with SF-268 CNS, more than 100 µM; in the test with K-562 leukemia, 71.1 µM; in the test on MOLT-4 leukemia it was more than 100 µM. The TGI in the test with OVCAR-5 ovarian is more than 100 µM; in the test with OVCAR-4 ovarian, more than 100 µM; with SF-539 CNS, more than 100 µM; in the test with UO-31 renal it was 90.4 µM.
